Experimental data as given in patent publication US6150414A, “Compositions and methods for treating viral infections” (priority 1992, dated 2000).
Several values for one entry are separate records, joined by “and”; a condition that tells them apart may be missing. Equal values may be shown once. Read-outs that look alike come from different tables or passages of the source.

Tested on: Friend Leukemia Virus
Assay: Inhibition of Friend Leukemia Virus-induced splenomegaly in mice, compounds intraperitoneally 24 hours after virus (Example 1(a))
Format: in vivo, BALB/c mice
Parameters: Actual Spleen Weight / Average Spleen Weight: unit not given here
Settings: for Actual Spleen Weight: single animal; for inhibition of FV-induced splenomegaly / anti-retroviral activity: Example 1(a); for inhibition in vivo at 0.1 mg / inhibition in vivo at 0.05 mg / inhibition in vivo at 0.2 mg: Mus musculus, ip; for Pooled Average % Inhibition: pooled over 50, 100, 200, 2 × 100 micrograms
Description: The effects of compositions according to the present invention on infection of mammals with Friend Leukemia Virus (FV) were examined.
Friend Leukemia Virus is an aggressive retrovirus which induces an acute erythroleukemia in sensitive strains of mice such as BALB/c and NIH swiss mice as described in Friend, C. J., Exp. Med. 105: 307-324, 1957; Friend, C. et al. Proc. Natl. Acad. Sci. USA 68: 378-383, 1971; Friend, C. et al. Natl. Cancer Inst. Mongr. 22: 508-552, 1966. The malignant transformation is the result of the combined activities of the Spleen Focus Forming Virus (SFFV) and the ecotropic Murine Friend Leukemia Helper Virus (F-MuLV). The acute erythroleukemia is characterized by hepatosplenomegaly (a marked increase in the size of the spleen and liver) and a severe anemia.
Friend Leukemia Virus was prepared by homogenizing the enlarged spleen of a mouse previously infected with FV, 10 days after intravenous virus injection. The spleen was homogenized in phosphate buffered saline in a volume equal to ten times the weight of the isolated spleen.
The effects of compositions according to the present invention on the increase in spleen size (splenomegaly) of BALB/c mice (Jackson Labs, Bar Harbor, ME) was examined. In these experiments, the virus (10^6 focus forming units--FFU) was inoculated intravenously and 100 micrograms of the compounds indicated in Table II were administered to the mice intraperitoneally 24 hours later. Each compound was administered once to two mice. The animals were sacrificed ten days later and their spleens weighed.
The present assay has been developed from similar assays using hypericin or pseudohypericin and employing higher numbers of experimental animals per group (e.g. 4 animals). It was discovered however that the specificity and sensitivity of this assay are such that an experimental group of two animals is of more than adequate predictive value.
As used in Table II (and subsequent Tables of this Example l(a) and (b), "average percent inhibition" is calculated as follows: [formula] wherein "ASWNC" designates "average spleen weight of negative control"; "ASWE" designates "average spleen weight of experimental (treated) subject"; and "ASWPC" designates "average spleen weight of positive control". Average spleen weight is the numerical average of spleen weights of each experimental group (in Table II each such group includes two members).
In these experiments, the virus (10^6 focus forming units--FFU) was inoculated intravenously, and the indicated doses of the antiviral compounds of this invention were administered to the BALB/c mice intraperitoneally 24 hours later. The animals were then sacrificed ten days later and their spleens weighed.
Pseudohypericin was diluted in phosphate buffered saline with 1% ethanol.
An expanded series of experiments was next performed in which various concentrations (i.e. 50, 100, 200 and 2×100, i.e., 100 micrograms administered twice) of a different set of PAC compounds (numbers 16-29 and 30-36 in Table III below) were administered intraperitoneally each according to the same protocol described above. Compounds 16-29 all had 3-5 fused, aromatic rings and no side groups except for oxygen or hydroxyl groups, whereas compounds 30-36 all had 3 fused aromatic rings and side chains selected from the group of oxygen, hydroxyl and methyl.
When 2 doses of the compounds were given, the second dose was administered 24-48 hours after the first injection. The animals were infected and splenomegaly determined as above for the compounds in Table II. In Table III, "pooled average percent inhibition" is calculated by adding the average percent inhibition for each experiment with the same compound and dividing the sum by the number of experiments (i.e. the number 4). […]

[1] = 100 micrograms i.p. once, 24 h after FV, Table II
[2] = 24 h, read-out: Average % Inhibition, 100 micrograms i.p. once, 24 h after FV, Table II
[3] = 24 h, 100 micrograms i.p. once, 24 h after FV, Table II, read-out: Average % Inhibition
[4] = dose 2 × 100 (micrograms) i.p., Table III
[5] = dose 50 (micrograms) i.p., Table III
[6] = dose 100 (micrograms) i.p., Table III
[7] = dose 200 (micrograms) i.p., Table III
[8] = dose 2 × 100 (micrograms) i.p., Table III, read-out: Average Perdosage % Inhibition
[9] = dose 50 (micrograms) i.p., Table III, read-out: Average Perdosage % Inhibition
[10] = dose 100 (micrograms) i.p., Table III, read-out: Average Perdosage % Inhibition
[11] = dose 200 (micrograms) i.p., Table III, read-out: Average Perdosage % Inhibition
[12] = read-out: Average Perdosage % Inhibition, dose 2 × 100 (micrograms) i.p., Table III
[13] = read-out: Average Perdosage % Inhibition, dose 50 (micrograms) i.p., Table III
[14] = read-out: Average Perdosage % Inhibition, dose 100 (micrograms) i.p., Table III
[15] = read-out: Average Perdosage % Inhibition, dose 200 (micrograms) i.p., Table III

c1cc2cccc3c2c(c1)c1c2c4cccc5cccc(c54)c2c2c4cccc5cccc(c54)c2c31 [Compound 1, Decacyclene]
Average % Inhibition [1]: 57.5%
Average Spleen Weight [1]: 0.3636
Actual Spleen Weight [1]: 0.3940 and 0.3331
inhibition of FV-induced splenomegaly / anti-retroviral activity: significantly inhibited FV-induced splenomegaly

O=C1OC(=O)c2ccc3c4ccc5c6c(ccc(c7ccc1c2c73)c64)C(=O)OC5=O [Compound 2, 3,4,9,10-Perylenetetracarboxylic dianhydride]
Average % Inhibition [1]: 1.3%
Average Spleen Weight [1]: 0.8439
Actual Spleen Weight [1]: 0.8678 and 0.8200

O=C1c2ccccc2-c2ccc3c4ccc5c6c(ccc(c7ccc1c2c73)c64)-c1ccccc1C5=O [Compound 3, Isoviolanthrone]
Average % Inhibition [1]: 41.5%
Average Spleen Weight [1]: 0.5001
Actual Spleen Weight [1]: 0.5147 and 0.4855

O=C1c2ccccc2-c2cc(O)c3c4c(O)cc5c6c(ccc(c7ccc1c2c73)c64)C(=O)c1ccccc1-5 [Compound 4, 16,17-Dihydroxydibenzanthrone]
Average % Inhibition [1]: 50.9%
Average Spleen Weight [1]: 0.4194
Actual Spleen Weight [1]: 0.4151 and 0.4234

O=c1oc(=O)c2c3ccc4cccc5c6cccc7ccc(c12)c(c76)c3c45 [Compound 5, Benzo(GHI)Perylene-1,2-Dicarboxylic Anhydride]
Average Spleen Weight [1]: 0.5101
inhibition in vivo at 0.1 mg [2]: 40.5%

O=c1oc(=O)c2c3ccc4ccc5ccc6ccc7ccc(c12)c1c7c6c5c4c31 [Compound 6, 3,4-Coronenedicarboxylic anhydride]
Average Spleen Weight [1]: 0.8700

c1ccc2c(c1)C1c3ccccc3C2c2ccccc21 [Compound 7, Triptycene]
Average Spleen Weight [1]: 0.4655
inhibition of FV-induced splenomegaly / anti-retroviral activity: significantly inhibited FV-induced splenomegaly
inhibition in vivo at 0.1 mg [3]: 45.6%

c1cc2ccc3ccc4ccc5ccc6ccc1c1c2c3c4c5c61 [Compound 8, Coronene]
Average Spleen Weight [1]: 0.4739
inhibition of FV-induced splenomegaly / anti-retroviral activity: significantly inhibited FV-induced splenomegaly
inhibition in vivo at 0.1 mg [2]: 44.6%

Cc1cc2ccc3ccc4ccccc4c3c2c2c1ccc1ccccc12 [Compound 11, 3-Methylphenanthro(3,4-C)Phenanthrene]
Average Spleen Weight [1]: 0.4235
inhibition in vivo at 0.1 mg [2]: 50.5%

CC1=CC2CCc3ccc4ccccc4c3C2c2c1ccc1ccccc21 (stereo not shown) [Compound 12, 4A,5,6,12C-Tetrahydro-3-Methylphenanthro (3,4-C)phenanthrene]
Average Spleen Weight [1]: 0.4531
inhibition in vivo at 0.1 mg [2]: 47.1%

O=C1CC2CC(=O)c3ccc4ccccc4c3C2c2c1ccc1ccccc21 (stereo not shown) [Compound 13, 3,4,4A,5,6,12C-Hexahydrophenanthro (3,4-C)Phenanthrene-3,6-Dione]
Average Spleen Weight [1]: 0.4742
inhibition in vivo at 0.1 mg [3]: 44.6%

c1ccc2c(c1)ccc1ccc3ccc4ccc5ccccc5c4c3c12 [Compound 14, Phenanthro(3,4-C)Phenanthrene]
Average Spleen Weight [1]: 0.5419
inhibition in vivo at 0.1 mg [2]: 36.6%

O=C1CC2CCc3ccc4ccccc4c3C2c2c1ccc1ccccc21 (stereo not shown) [Compound 15, 3,4,4A,5,6,12C-Hexahydrophenanthro (3,4-C)phenanthren-3-one]
Average Spleen Weight [1]: 0.3739
inhibition in vivo at 0.1 mg [3]: 56.3%

C1CCc2c(c3c(c4c2CCCC4)CCCC3)C1 [Compound 16, Dodecahydrotriphenylene]
Actual Spleen Weight (dose 2 × 100 (micrograms) i.p., second dose 24-48 hours later, Table III): 1.161 and 1.2072
Average Perdosage % Inhibition [4]: 28%
Average Spleen Weight [4]: 1.1867
Average Perdosage % Inhibition [5]: 44%
Average Spleen Weight [5]: 0.9508
Actual Spleen Weight [5]: 0.9062 and 0.9954
Average Spleen Weight [6]: 1.6057
Actual Spleen Weight [6]: 1.6206 and 1.5907
Average Perdosage % Inhibition [7]: 24%
Average Spleen Weight [7]: 1.2478
Actual Spleen Weight [7]: 1.2007 and 1.2948
Pooled Average % Inhibition (Table III): 24%

c1ccc2c(c1)ccc1ccccc12 [Compound 17, Phenanthrene]
inhibition in vivo at 0.1 mg [8]: 36%
inhibition in vivo at 0.05 mg [9]: 31%
inhibition in vivo at 0.1 mg [10]: 21%
inhibition in vivo at 0.2 mg [11]: 17%
Average Spleen Weight [4]: 1.0683
Average Spleen Weight [5]: 1.1350
Average Spleen Weight [6]: 1.2864
Average Spleen Weight [7]: 1.3501
Pooled Average % Inhibition (Table III): 26%

c1ccc2c(c1)c1ccccc1c1ccccc21 [Compound 19, Triphenylene]
inhibition in vivo at 0.1 mg [12]: 13%
inhibition in vivo at 0.05 mg [13]: 37%
inhibition in vivo at 0.1 mg [14]: 4%
inhibition in vivo at 0.2 mg [15]: 13%
Average Spleen Weight [4]: 1.4063
Average Spleen Weight [5]: 1.0499
Average Spleen Weight [6]: 1.5345
Average Spleen Weight [7]: 1.3994
Pooled Average % Inhibition (Table III): 17%

c1ccc2c(c1)CCc1ccccc1-2 [Compound 20]
inhibition in vivo at 0.1 mg [8]: 6%
inhibition in vivo at 0.05 mg [9]: 22%
inhibition in vivo at 0.2 mg [11]: 11%
Average Spleen Weight [4]: 1.5023
Average Spleen Weight [5]: 1.2758
Average Spleen Weight [6]: 2.0019
Average Spleen Weight [7]: 1.4315
Pooled Average % Inhibition (Table III): 3%

C1=CCC2=C(C1)CC1=C(CC=CC1)C2 [Compound 21, 1,4,5,8,9,10-Hexahydroanthracene]
inhibition in vivo at 0.1 mg [8]: 23%
inhibition in vivo at 0.05 mg [9]: 13%
inhibition in vivo at 0.1 mg [10]: 13%
inhibition in vivo at 0.2 mg [11]: 21%
Average Spleen Weight [4]: 1.2624
Average Spleen Weight [5]: 1.4036
Average Spleen Weight [6]: 1.4121
Average Spleen Weight [7]: 1.2947
Pooled Average % Inhibition (Table III): 17%

c1ccc(-c2c3ccccc3c(-c3ccccc3)c3ccccc23)cc1 [Compound 22, 9,10-Diphenylanthracene]
inhibition in vivo at 0.1 mg [12]: 13%
inhibition in vivo at 0.05 mg [13]: 41%
inhibition in vivo at 0.1 mg [14]: 5%
inhibition in vivo at 0.2 mg [15]: 0%
Average Spleen Weight [4]: 1.4120
Average Spleen Weight [5]: 0.9936
Average Spleen Weight [6]: 1.5171
Average Spleen Weight [7]: 1.5913
Pooled Average % Inhibition (Table III): 15%

c1cc2c3c(ccc4c3c1CCC4)CCC2 [Compound 23, 1,2,3,6,7,8-Hexahydropyrene]
inhibition in vivo at 0.1 mg [8]: 32%
inhibition in vivo at 0.05 mg [9]: 26%
inhibition in vivo at 0.1 mg [10]: 6%
inhibition in vivo at 0.2 mg [11]: 34%
Average Spleen Weight [4]: 1.1281
Average Spleen Weight [5]: 1.2092
Average Spleen Weight [6]: 1.5131
Average Spleen Weight [7]: 1.0961
Pooled Average % Inhibition (Table III): 25%

O=C1C(c2ccccc2)=C(c2ccccc2)C(c2ccccc2)=C1c1ccccc1 [Compound 24, Tetraphenylcyclo pentadienone]
inhibition in vivo at 0.1 mg [8]: 24%
inhibition in vivo at 0.05 mg [9]: 20%
inhibition in vivo at 0.1 mg [10]: 14%
inhibition in vivo at 0.2 mg [11]: 6%
Average Spleen Weight [4]: 1.2437
Average Spleen Weight [5]: 1.2959
Average Spleen Weight [6]: 1.3940
Average Spleen Weight [7]: 1.5070
Pooled Average % Inhibition (Table III): 16%
